Experimental data as given in patent US20250136617A1 (The Regents of the University of Colorado, A Body Corporate, priority 2022, published 2025).
“Also recorded” adds a separate entry of the source.

Experiments:
[1] = system: diabetic wounds in Db mice; test: Angiogenesis in diabetic wounds, CD31 immunohistochemistry at 7 days; type: in vivo
Protocol: The ability of compound UCUF-728 to improve diabetic wound healing in vivo was examined. Full-thickness excisional 8 mm wounds were created in Db mice and were immediately treated with 10 μM UCUF-728 or phosphate-buffered saline (PBS) control. Wound healing over the course of 22 days was monitored. Initial wound size was calculated immediately after wounding, and wound closure was assessed over time as the percentage of initial wound area. […] The effect of UCUF-728 treatment on angiogenesis was assessed using immunohistochemistry for endothelial marker CD31. Representative photos of immunoperoxidase staining for CD31 at 7 days in diabetic wounds treated with PBS or UCUF-728 are shown in FIG. 8A.
All animal experiments were approved by the Institutional Animal Care and Use Committee at the University of Colorado Denver—Anschutz Medical Campus, and experimental protocols followed the guidelines described in the NIH Guide for the Care and Use of Laboratory Animals. […] Mice pictures were taken every other day, wound size was analyzed by Image J. A full-thickness skin sample, centered on the wound, was harvested 3 and 7 days after surgery (n=5 per timepoint).
The effect of UCUF-965 treatment on angiogenesis was assessed using immunohistochemistry for the endothelial marker CD31. […] Quantification of the staining was obtained.

[2] = system: miR-15b; test: qPCR of miR-15b expression in human dermal fibroblasts; type: cell-based; details: 24 hours, 0.1, 1 and 10 uM
Protocol: An additional secondary screen was performed to further validate activity of UCUF-728 as a selective CXCR4 receptor modulator. Human diabetic and non-diabetic fibroblasts were cultured with increasing concentrations of the compound. The cells were incubated for 24 hours and then total cellular RNA was isolated to examine the ability of the compound to correct the abnormal expression of miR15b, and miR29a. It has been shown that human diabetic skin has increased miR-15b expression at baseline compared to non-diabetic skin (Xu et al. “The role of microRNA-15b in the impaired angiogenesis in diabetic wounds.” Wound Repair Regen 2014; 22(5):671-7).
Diabetic and non-diabetic fibroblasts were cultured with increasing concentrations of a UCUF-965 compound. The cells were incubated for 24 hours and then total cellular RNA was isolated to examine the ability of the compound to correct the abnormal expression of miR15b, and miR29a. Angiogenesis is regulated by hypoxia and the production of growth factors such as Hypoxia-inducible Factor 1-alpha (HIF-1a) and Vascular Endothelial Growth Factor (VEGF). […] MicroRNA-15b (miR-15b) has been described as a key negative modulator of angiogenesis. Under hypoxia, miR-15b is repressed, resulting in an increased level of VEGF. Over-expression of miR-15b also markedly attenuates hypoxia induced vessel tube formation and cell migration. […]

Row | SMILES | number of vessels (CD31 staining) vs PBS ([1]; listed as UCUF-728) | miR-15b expression ([2]; listed as UCUF-728) | number of vessels (CD31 staining) vs PBS ([1]; listed as UCUF-965) | miR-15b expression ([2]; listed as UCUF-965)
1 | COc1ccc(OC)c(NS(=O)(=O)c2ccc(-c3cnc(C4CC4)o3)cc2)c1 [Oxazole Entry 19, 4-(2-Cyclopropyloxazol-5-yl)-N-(2,5-dimethoxyphenyl)benzenesulfonamide] | significant increase in the number of vessels; also recorded: enhanced angiogenesis | decreased expression of miR-15b; also recorded: potent suppression of miR-15b expression |  | 
2 | CCOc1ccccc1-c1nnc2n1N=C(c1ccc(N3CCCC3)cc1)CS2 [Thiadiazine Entry 23, 3-(2-ethoxyphenyl)-6-(4-(pyrrolidin-1-yl)phenyl)-7H-[1,2,4]triazolo[3,4-b][1,3,4]thiadiazine] |  |  | enhanced angiogenesis markers; also recorded: significantly increased the number of vessels | decreased expression of miR-15b
